According to patent US11839593B2, “Penetrating topical pain relief compositions and methods of use” (Tech Swerve LLC, priority 2019, dated 2023):

Assay: Solubility in DMSO or in DMSO and water
Conditions: isolates

For `CCCCCc1cc(O)c2c(c1)OC(C)(C)[C@@H]1CCC(C)=C[C@@H]21` [THC, tetrahydrocannabinol], which “solubility in DMSO” value is on record?
The value was “soluble in DMSO”.
